Data as given in patent publication US10392368B2, “Pyrazolo and triazolo bicyclic compounds as JAK kinase inhibitors” (THERAVANCE BIOPHARMA R&D IP, LLC, priority 2017, dated 2019).

How the values were obtained:
JAK3 = target: T1, JAK3 (Homo sapiens, UniProt P52333); assay: Biochemical JAK3 kinase assay (LanthaScreen); parameters: GST; purchased Life Technologies; conditions: for Ki: read-out: JAK 3 (pKi) (converted)
T1 sequence (P52333 1-1124): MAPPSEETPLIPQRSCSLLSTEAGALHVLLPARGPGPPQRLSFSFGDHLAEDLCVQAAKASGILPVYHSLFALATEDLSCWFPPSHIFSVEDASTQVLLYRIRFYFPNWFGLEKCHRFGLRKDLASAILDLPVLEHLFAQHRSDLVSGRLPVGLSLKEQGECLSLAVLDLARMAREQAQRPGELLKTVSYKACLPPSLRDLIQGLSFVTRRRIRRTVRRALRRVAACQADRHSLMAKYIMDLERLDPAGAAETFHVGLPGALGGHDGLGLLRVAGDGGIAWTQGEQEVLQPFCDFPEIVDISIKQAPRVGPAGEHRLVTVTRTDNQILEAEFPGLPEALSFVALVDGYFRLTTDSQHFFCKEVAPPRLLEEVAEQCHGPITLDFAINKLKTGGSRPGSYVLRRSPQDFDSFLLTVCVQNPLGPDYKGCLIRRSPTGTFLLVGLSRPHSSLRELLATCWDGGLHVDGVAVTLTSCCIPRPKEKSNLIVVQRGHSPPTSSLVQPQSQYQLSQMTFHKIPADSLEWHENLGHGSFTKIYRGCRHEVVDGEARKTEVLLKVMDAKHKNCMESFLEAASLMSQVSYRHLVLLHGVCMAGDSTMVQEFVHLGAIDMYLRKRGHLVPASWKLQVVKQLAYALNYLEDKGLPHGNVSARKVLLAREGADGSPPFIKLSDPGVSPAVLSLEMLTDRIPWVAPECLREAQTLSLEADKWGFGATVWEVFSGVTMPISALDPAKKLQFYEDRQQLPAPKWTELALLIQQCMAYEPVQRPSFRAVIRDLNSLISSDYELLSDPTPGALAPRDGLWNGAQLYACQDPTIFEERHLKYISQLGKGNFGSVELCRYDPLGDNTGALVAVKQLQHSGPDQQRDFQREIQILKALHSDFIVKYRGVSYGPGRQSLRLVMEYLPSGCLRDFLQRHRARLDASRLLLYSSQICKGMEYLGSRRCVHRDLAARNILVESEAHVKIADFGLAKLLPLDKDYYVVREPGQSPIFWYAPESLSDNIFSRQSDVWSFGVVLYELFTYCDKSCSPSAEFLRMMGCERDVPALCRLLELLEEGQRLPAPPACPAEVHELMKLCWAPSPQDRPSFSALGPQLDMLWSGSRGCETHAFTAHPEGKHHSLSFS
In short: (§1)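 GST-tagged JAK enzyme and GFP-STAT1 peptide preincubated with compound 1 h, then ATP added; 1 h kinase reaction at ambient temperature, pH 7.5 HEPES/MgCl2 buffer, 1% DMSO. Tb-anti-pSTAT1 (pTyr701) TR-FRET, 520/495 nm ratio; IC50 from 4-parameter fit, converted to pKi via Cheng-Prusoff.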

Tyk2 = target: T2, Tyk2 (Homo sapiens, UniProt P29597); assay: Biochemical Tyk2 kinase assay (LanthaScreen); conditions: for Ki: read-out: Tyk 2 (pKi) (converted)
T2 construct: GST; purchased Life Technologies
T2 sequence (P29597 whole entry): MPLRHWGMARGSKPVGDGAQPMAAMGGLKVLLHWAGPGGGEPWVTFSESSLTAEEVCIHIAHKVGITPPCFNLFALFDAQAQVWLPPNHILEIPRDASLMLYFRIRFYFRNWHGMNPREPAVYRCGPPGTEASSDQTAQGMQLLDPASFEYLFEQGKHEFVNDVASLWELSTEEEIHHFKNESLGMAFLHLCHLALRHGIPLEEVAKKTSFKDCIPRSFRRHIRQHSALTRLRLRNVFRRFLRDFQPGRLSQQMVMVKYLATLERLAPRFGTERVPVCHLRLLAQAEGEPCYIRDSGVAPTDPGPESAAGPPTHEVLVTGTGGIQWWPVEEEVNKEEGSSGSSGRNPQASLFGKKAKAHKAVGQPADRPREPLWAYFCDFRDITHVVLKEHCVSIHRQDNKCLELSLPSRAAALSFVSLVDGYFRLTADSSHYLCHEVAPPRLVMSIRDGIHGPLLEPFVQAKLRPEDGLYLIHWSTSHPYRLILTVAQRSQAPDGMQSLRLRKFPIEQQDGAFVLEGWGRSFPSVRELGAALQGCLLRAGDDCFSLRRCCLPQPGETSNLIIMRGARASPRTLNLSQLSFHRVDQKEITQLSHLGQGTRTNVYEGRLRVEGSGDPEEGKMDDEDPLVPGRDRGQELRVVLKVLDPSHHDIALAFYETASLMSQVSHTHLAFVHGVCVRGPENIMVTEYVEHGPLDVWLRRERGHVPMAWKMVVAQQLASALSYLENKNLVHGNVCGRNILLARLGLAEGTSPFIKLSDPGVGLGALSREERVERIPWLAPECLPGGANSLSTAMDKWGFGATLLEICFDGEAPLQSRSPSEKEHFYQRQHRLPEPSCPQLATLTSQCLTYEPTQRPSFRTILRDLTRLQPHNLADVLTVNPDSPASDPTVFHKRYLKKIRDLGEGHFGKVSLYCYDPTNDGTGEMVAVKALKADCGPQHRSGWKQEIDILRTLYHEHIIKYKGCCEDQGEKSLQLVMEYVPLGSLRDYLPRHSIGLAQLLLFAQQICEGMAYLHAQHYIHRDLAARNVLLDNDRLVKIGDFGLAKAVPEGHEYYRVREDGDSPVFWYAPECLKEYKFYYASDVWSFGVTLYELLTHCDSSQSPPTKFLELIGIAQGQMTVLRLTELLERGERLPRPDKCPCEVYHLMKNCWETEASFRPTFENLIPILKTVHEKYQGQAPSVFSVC
In short: as §1

JAK2 = target: T3, JAK2 (Homo sapiens, UniProt O60674); assay: Biochemical JAK2 kinase assay (LanthaScreen); conditions: for Ki: read-out: JAK 2 (pKi) (converted)
T3 construct: GST; purchased Life Technologies
T3 sequence (O60674 whole entry): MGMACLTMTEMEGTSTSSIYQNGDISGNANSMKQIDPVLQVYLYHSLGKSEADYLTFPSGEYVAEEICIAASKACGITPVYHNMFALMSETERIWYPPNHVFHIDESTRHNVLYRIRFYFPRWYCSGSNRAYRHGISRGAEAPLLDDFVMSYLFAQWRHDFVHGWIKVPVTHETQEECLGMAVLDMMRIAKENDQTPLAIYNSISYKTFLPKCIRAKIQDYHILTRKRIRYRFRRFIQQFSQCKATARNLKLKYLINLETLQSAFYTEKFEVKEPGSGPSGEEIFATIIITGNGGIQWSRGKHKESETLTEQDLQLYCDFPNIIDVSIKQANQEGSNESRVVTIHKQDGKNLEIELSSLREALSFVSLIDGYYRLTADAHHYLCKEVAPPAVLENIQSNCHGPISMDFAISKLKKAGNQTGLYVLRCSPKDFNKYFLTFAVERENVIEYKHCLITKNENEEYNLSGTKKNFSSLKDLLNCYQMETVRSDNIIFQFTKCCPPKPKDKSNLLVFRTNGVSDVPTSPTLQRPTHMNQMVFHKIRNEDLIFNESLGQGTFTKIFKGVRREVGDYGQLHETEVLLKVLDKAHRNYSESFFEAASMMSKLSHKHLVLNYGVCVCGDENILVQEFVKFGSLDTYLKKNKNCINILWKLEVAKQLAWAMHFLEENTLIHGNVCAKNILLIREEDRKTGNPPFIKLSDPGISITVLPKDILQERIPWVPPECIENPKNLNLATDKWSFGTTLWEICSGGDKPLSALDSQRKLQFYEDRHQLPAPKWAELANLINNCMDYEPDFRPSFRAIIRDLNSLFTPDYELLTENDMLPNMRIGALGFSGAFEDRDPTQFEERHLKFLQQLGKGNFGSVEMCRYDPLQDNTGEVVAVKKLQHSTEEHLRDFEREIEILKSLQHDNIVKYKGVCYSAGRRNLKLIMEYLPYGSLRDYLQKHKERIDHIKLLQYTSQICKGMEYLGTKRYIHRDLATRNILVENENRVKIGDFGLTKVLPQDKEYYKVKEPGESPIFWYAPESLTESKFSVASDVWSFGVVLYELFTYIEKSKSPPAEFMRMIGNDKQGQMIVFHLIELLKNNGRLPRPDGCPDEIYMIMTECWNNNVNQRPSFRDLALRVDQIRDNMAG
In short: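 GST-tagged recombinant JAK2 pre-incubated 1 h at ambient temperature with compound and GFP-STAT1 peptide in HEPES pH 7.5/MgCl2 buffer, then ATP added for a 1 h reaction with 1% DMSO. TR-FRET read after EDTA and Tb-anti-pSTAT1 (pTyr701) addition; IC50 from 4-parameter fit, converted to pKi by Cheng-Prusoff.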

JAK1 = target: T4, JAK1 (Homo sapiens, UniProt P23458); assay: Biochemical JAK1 kinase assay (LanthaScreen); conditions: for Ki: read-out: JAK 1 (pKi) (converted)
T4 construct: GST; purchased Life Technologies
T4 sequence (P23458 whole entry): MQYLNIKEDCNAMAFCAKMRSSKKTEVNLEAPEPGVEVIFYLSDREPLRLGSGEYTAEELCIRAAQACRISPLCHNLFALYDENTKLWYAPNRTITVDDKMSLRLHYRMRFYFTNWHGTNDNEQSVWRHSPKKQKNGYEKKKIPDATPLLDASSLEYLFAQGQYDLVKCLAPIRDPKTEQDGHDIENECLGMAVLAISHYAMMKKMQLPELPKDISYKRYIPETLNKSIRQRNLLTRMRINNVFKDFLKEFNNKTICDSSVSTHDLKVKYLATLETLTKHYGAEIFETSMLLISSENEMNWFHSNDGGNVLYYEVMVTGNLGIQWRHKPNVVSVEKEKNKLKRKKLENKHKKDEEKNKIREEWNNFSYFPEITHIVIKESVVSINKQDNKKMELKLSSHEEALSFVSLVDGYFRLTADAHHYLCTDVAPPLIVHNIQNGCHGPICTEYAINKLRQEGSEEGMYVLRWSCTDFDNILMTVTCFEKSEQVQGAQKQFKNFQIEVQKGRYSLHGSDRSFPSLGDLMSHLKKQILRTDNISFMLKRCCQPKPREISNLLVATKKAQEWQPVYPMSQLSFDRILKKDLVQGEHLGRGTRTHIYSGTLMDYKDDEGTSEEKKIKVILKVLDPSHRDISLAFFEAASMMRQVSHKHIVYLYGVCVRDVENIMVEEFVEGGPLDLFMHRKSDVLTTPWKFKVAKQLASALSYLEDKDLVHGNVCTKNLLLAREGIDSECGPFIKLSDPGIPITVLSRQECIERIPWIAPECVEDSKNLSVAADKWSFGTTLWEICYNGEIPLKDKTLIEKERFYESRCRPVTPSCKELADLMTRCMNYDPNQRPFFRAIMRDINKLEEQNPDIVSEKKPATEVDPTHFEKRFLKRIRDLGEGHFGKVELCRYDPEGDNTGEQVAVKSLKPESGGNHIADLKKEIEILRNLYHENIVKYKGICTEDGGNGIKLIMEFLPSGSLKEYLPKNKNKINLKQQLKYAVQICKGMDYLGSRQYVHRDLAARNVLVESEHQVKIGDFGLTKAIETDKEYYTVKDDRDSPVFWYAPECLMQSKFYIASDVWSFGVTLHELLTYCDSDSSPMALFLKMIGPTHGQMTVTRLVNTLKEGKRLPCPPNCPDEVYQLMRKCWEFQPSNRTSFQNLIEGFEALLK
In short: as §1

[1] = tested on: IL-2 stimulated pSTAT5 in Tall-1 T cells; assay: Cellular JAK3 potency assay: inhibition of IL-2 stimulated pSTAT5 in Tall-1 T cells; assay type: cell-based, human; conditions: for IC50: Homo sapiens, TALL-1, IL-2 stimulated pSTAT5 in Tall-1 T cells, read-out: Tall-1 (pIC50) (converted); for Tall-1 (pIC50): IL-2 stimulated pSTAT5, Tall-1 T cells
In short: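 Tall-1 human T cells (45,000/well) in phenol red-free DMEM with 10% FBS were preincubated with compound 1 h at 37 °C, then stimulated with IL-2 (final 300 ng/ml) for 30 min. Lysate pSTAT5 read by AlphaLisa; IC50 from inhibition curves, reported as pIC50 (mean±SD).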

[2] = selectivity: difference of pKi JAK3 and pKi JAK1
[3] = selectivity JAK3 over JAK1, difference of pKi

C=CC(=O)N1CC[C@H](S(=O)(=O)c2cc(-c3ccc(O)cc3)cc3[nH]ncc23)C1 [Compound 13]
Ki (JAK3): < 0.0001 µM
JAK3 (pKi)-JAK1 (pKi) (JAK3; [2]): A (a value of 3 or above)
Ki (Tyk2): > 0.1 µM
Ki (JAK2): > 0.1 µM
Ki (JAK1): > 0.1 µM
IC50 [1]: 0.0316 to 0.2 µM

C=CC(=O)N1CCC(Cc2cc(-c3ccc(O)cc3)cc3[nH]ncc23)CC1 [Compound 14, 1-(4-((6-(4-hydroxyphenyl)-1H-indazol-4-yl)methyl)piperidin-1-yl)prop-2-en-1-one]
Ki (JAK3): 0.0001 to 0.001 µM
JAK3 (pKi)-JAK1 (pKi) (JAK3; [2]): A (a value of 3 or above)
Ki (Tyk2): > 0.1 µM
Ki (JAK2): > 0.1 µM
Ki (JAK1): > 0.1 µM
IC50 [1]: 0.0316 to 0.2 µM

C=CC(=O)N1CCC(COc2cc(-c3ccc(O)c(Cl)c3)cc3[nH]ncc23)CC1 [Compound 14-1]
JAK 3 (pKi) (JAK3): B (a pKi value between 9 and 10 (Ki between 1 nM and 0.1 nM))
JAK3 (pKi)-JAK1 (pKi) (JAK3; [3]): A (a value of 3 or above)
Tyk 2 (pKi) (Tyk2): E (a pKi value of 7 or below (Ki of 100 nM or above))
JAK 2 (pKi) (JAK2): E (a pKi value of 7 or below (Ki of 100 nM or above))
JAK 1 (pKi) (JAK1): E (a pKi value of 7 or below (Ki of 100 nM or above))
Tall-1 (pIC50) [1]: A (a pIC50 value≥7.5 (IC50≤32 nM))

C=CC(=O)N1CCC(COc2cc(-c3ccc(O)cc3)nc3[nH]ncc23)CC1 [Compound 14-2]
JAK 3 (pKi) (JAK3): A (a pKi value≥10 (Ki≤0.1 nM))
JAK3 (pKi)-JAK1 (pKi) (JAK3; [3]): A (a value of 3 or above)
Tyk 2 (pKi) (Tyk2): E (a pKi value of 7 or below (Ki of 100 nM or above))
JAK 2 (pKi) (JAK2): E (a pKi value of 7 or below (Ki of 100 nM or above))
JAK 1 (pKi) (JAK1): E (a pKi value of 7 or below (Ki of 100 nM or above))
Tall-1 (pIC50) [1]: B (a pIC50 value between 6.7 (included) and 7.5 (IC50 between 200 nM and 32 nM))

C=CC(=O)N1CCC(COc2cc(-c3ccc(O)c(F)c3)nc3[nH]ncc23)CC1 [Compound 14-9]
JAK 3 (pKi) (JAK3): B (a pKi value between 9 and 10 (Ki between 1 nM and 0.1 nM))
JAK3 (pKi)-JAK1 (pKi) (JAK3; [3]): A (a value of 3 or above)
Tyk 2 (pKi) (Tyk2): E (a pKi value of 7 or below (Ki of 100 nM or above))
JAK 2 (pKi) (JAK2): E (a pKi value of 7 or below (Ki of 100 nM or above))
JAK 1 (pKi) (JAK1): E (a pKi value of 7 or below (Ki of 100 nM or above))
Tall-1 (pIC50) [1]: B (a pIC50 value between 6.7 (included) and 7.5 (IC50 between 200 nM and 32 nM))

C=CC(=O)N1CCC(COc2nc(-c3ccc(O)cc3)nc3[nH]ncc23)CC1 [Compound 14-12]
JAK 3 (pKi) (JAK3): B (a pKi value between 9 and 10 (Ki between 1 nM and 0.1 nM))
JAK3 (pKi)-JAK1 (pKi) (JAK3; [3]): A (a value of 3 or above)
Tyk 2 (pKi) (Tyk2): E (a pKi value of 7 or below (Ki of 100 nM or above))
JAK 2 (pKi) (JAK2): E (a pKi value of 7 or below (Ki of 100 nM or above))
JAK 1 (pKi) (JAK1): E (a pKi value of 7 or below (Ki of 100 nM or above))
Tall-1 (pIC50) [1]: C (a pIC50 value between 6 and 6.7 (IC50 between 1 μM and 200 nM))

C=CC(=O)N1CC2(CC(Oc3cc(-c4ccc(O)c(F)c4)cc4[nH]ncc34)C2)C1 [Compound 15-2]
JAK 3 (pKi) (JAK3): A (a pKi value≥10 (Ki≤0.1 nM))
JAK3 (pKi)-JAK1 (pKi) (JAK3; [3]): B (a value of 2.3 to 3)
Tyk 2 (pKi) (Tyk2): E (a pKi value of 7 or below (Ki of 100 nM or above))
JAK 2 (pKi) (JAK2): D (a pKi value between 7 and 8 (Ki between 100 nM and 10 nM))
JAK 1 (pKi) (JAK1): D (a pKi value between 7 and 8 (Ki between 100 nM and 10 nM))
Tall-1 (pIC50) [1]: A (a pIC50 value≥7.5 (IC50≤32 nM))
